Active and inactive are the calls of the source. No cut-off for these calls is given here.
Legend:
[1] = target: T1, Eukaryotic initiation factor 4A-I (Homo sapiens, UniProt P60842); assay: Inhibition of human recombinant N-terminal His6-tagged eIF4A expressed in Escherichia coli BL21 CodonPlus cells using ATP and yeast RNA as substrate preincubated with enzyme for 20 mins followed by susbtrate addition and measured after 4 hrs by Malachite green ATPase assay
BJAB = assay: Cytotoxicity against human BJAB cells assessed as reduction in cell viability measured after 72 hrs by CellTiter-Glo luminescent assay; assay type: functional, cell-based
[2] = target: T1, Eukaryotic initiation factor 4A-I; assay: Binding affinity to eIF4A in human A549 cells assessed as increase in thermal stability of the protein at 100 nM incubated for 90 mins by CETSA analysis; assay type: cell-based
Reticulocyte [3] = assay: Inhibition of eIF4A in rabbit reticulocyte lysate assessed as inhibition of cap-dependent translation of firefly luciferase using bicistronic luciferase reporter [pSP/(CAG)33/FF/HCV/Ren.pA51] at 100 nM incubated for 90 mins by luciferase reporter gene based luminescence analysis; assay type: subcellular; details: Oryctolagus cuniculus
Reticulocyte [4] = assay: Inhibition of IRES-dependent translation of renilla luciferase in rabbit reticulocyte lysates using bicistronic luciferase reporter [pSP/(CAG)33/FF/HCV/Ren.pA51] at 100 nM incubated for 90 mins by luciferase reporter gene based luminescence analysis; assay type: functional, subcellular; details: Oryctolagus cuniculus
[5] = target: T1, Eukaryotic initiation factor 4A-I; assay: Inhibition of helicase activity of human recombinant N-terminal His6-tagged eIF4A expressed in Escherichia coli BL21 CodonPlus cells assessed as increase in double stranded signal using Cy3-labeled RNA strand and unlabeled DNA strand by native PAGE analysis
[6] = target: T1, Eukaryotic initiation factor 4A-I; assay: Inhibition of helicase activity of human recombinant N-terminal His6-tagged eIF4A expressed in Escherichia coli BL21 CodonPlus cells using Cy3-labeled RNA strand and unlabeled DNA strand by native PAGE analysis
[7] = target: T1, Eukaryotic initiation factor 4A-I; assay: Competitive inhibition of human recombinant N-terminal His6-tagged eIF4A expressed in Escherichia coli BL21 CodonPlus cells assessed as […] with constant Vmax of RNA using 250 uM ATP and varying concentration of yeast RNA as substrate preincubated with enzyme for 20 mins followed by substrate addition and measured after 1 to 7 hrs by Malachite green ATPase assay; details: time 80-440 min
[8] = target: T1, Eukaryotic initiation factor 4A-I; assay: Uncompetitive inhibition of human recombinant N-terminal His6-tagged eIF4A expressed in Escherichia coli BL21 CodonPlus cells assessed as decrease in Km and Vmax of ATP using varying concentrations of ATP and 250 ug/ml yeast RNA as substrate preincubated with enzyme for 20 mins followed by substrate addition and measured after 1 to 7 hrs by Malachite green ATPase assay; details: time 80-440 min
[9] = target: T1, Eukaryotic initiation factor 4A-I; assay: Inhibition of helicase activity of human recombinant N-terminal His6-tagged eIF4A expressed in Escherichia coli BL21 CodonPlus cells assessed as decrease in single stranded signal using Cy3-labeled RNA strand and unlabeled DNA strand by native PAGE analysis
Reticulocyte [10] = assay: Inhibition of cap-dependent translation of firefly luciferase in rabbit reticulocyte lysates using bicistronic luciferase reporter [pSP/(CAG)33/FF/HCV/Ren.pA51] at 600 uM incubated for 90 mins by luciferase reporter gene based luminescence analysis; assay type: functional, subcellular; details: Oryctolagus cuniculus
Reticulocyte [11] = assay: Inhibition of IRES-dependent translation of renilla luciferase in rabbit reticulocyte lysates using bicistronic luciferase reporter [pSP/(CAG)33/FF/HCV/Ren.pA51] at 600 uM incubated for 90 mins by luciferase reporter gene based luminescence analysis; assay type: functional, subcellular; details: Oryctolagus cuniculus
[12] = target: T1, Eukaryotic initiation factor 4A-I; assay: Displacement of MANT-ATP from human recombinant N-terminal His6-tagged eIF4A expressed in Escherichia coli BL21 CodonPlus cells at 1 mM preincubated with enzyme and yeast RNA for 20 mins followed by MANT-ATP addition for 30 mins by fluorescence polarization assay; details: time 50.0 min
[13] = target: Eukaryotic initiation factor 4A-I (Homo sapiens, UniProt P60842, R110M); assay: Inhibition of human recombinant N-terminal His6-tagged eIF4A R110M mutant expressed in Escherichia coli BL21 CodonPlus cells using ATP and yeast RNA as substrate preincubated with enzyme for 20 mins followed by susbtrate addition and measured after 4 hrs by Malachite green ATPase assay
Eukaryotic initiation factor 4A-I (Homo sapiens, UniProt P60842, R110M), sequence (P60842 2-406 R110M limits assumed): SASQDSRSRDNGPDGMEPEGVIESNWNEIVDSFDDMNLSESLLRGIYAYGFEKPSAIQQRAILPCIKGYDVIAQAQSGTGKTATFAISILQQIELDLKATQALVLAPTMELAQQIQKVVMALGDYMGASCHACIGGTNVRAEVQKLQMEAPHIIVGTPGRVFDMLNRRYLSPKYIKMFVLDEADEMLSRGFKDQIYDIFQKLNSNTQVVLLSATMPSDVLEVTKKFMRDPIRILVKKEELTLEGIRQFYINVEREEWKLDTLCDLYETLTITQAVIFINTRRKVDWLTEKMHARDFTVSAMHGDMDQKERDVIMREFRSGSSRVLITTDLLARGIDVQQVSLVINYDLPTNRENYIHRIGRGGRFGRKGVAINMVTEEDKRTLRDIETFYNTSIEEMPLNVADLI

[14] = target: Eukaryotic initiation factor 4A-I (Homo sapiens, UniProt P60842, R110E); assay: Inhibition of human recombinant N-terminal His6-tagged eIF4A R110E mutant expressed in Escherichia coli BL21 CodonPlus cells using ATP and yeast RNA as substrate preincubated with enzyme for 20 mins followed by susbtrate addition and measured after 4 hrs by Malachite green ATPase assay
Eukaryotic initiation factor 4A-I (Homo sapiens, UniProt P60842, R110E), sequence (P60842 2-406 R110E limits assumed): as the sequence (P60842 2-406 R110M limits assumed) above, with M109E counted along it

[15] = target: Eukaryotic initiation factor 4A-I (Homo sapiens, UniProt P60842, R311K); assay: Inhibition of human recombinant N-terminal His6-tagged eIF4A R311K mutant expressed in Escherichia coli BL21 CodonPlus cells using ATP and yeast RNA as substrate preincubated with enzyme for 20 mins followed by susbtrate addition and measured after 4 hrs by Malachite green ATPase assay
Eukaryotic initiation factor 4A-I (Homo sapiens, UniProt P60842, R311K), sequence (P60842 2-406 R311K limits assumed): as the sequence (P60842 2-406 R110M limits assumed) above, with M109R, R310K counted along it

Reticulocyte [16] = assay: Inhibition of eIF4A in rabbit reticulocyte lysate assessed as inhibition of cap-dependent translation of firefly luciferase using bicistronic luciferase reporter [pSP/(CAG)33/FF/HCV/Ren.pA51] incubated for 90 mins by luciferase reporter gene based luminescence analysis; assay type: subcellular; details: Oryctolagus cuniculus
[17] = target: Eukaryotic initiation factor 4A-I (Homo sapiens, UniProt P60842, R110L); assay: Inhibition of human recombinant N-terminal His6-tagged eIF4A R110L mutant expressed in Escherichia coli BL21 CodonPlus cells using ATP and yeast RNA as substrate preincubated with enzyme for 20 mins followed by susbtrate addition and measured after 4 hrs by Malachite green ATPase assay
Eukaryotic initiation factor 4A-I (Homo sapiens, UniProt P60842, R110L), sequence (P60842 2-406 R110L limits assumed): as the sequence (P60842 2-406 R110M limits assumed) above, with M109L counted along it

[18] = target: T1, Eukaryotic initiation factor 4A-I; assay: Binding affinity to human recombinant N-terminal His6-tagged eIF4A expressed in Escherichia coli BL21 CodonPlus cells assessed as increase in melting temperature at 3.13 to 50 uM incubated for 5 mins by differential scanning fluorimetry; details: dose 3.13-50 µM
[19] = target: Eukaryotic initiation factor 4A-I (Homo sapiens, UniProt P60842, R311E); assay: Inhibition of human recombinant N-terminal His6-tagged eIF4A R311E mutant expressed in Escherichia coli BL21 CodonPlus cells using ATP and yeast RNA as substrate preincubated with enzyme for 20 mins followed by susbtrate addition and measured after 4 hrs by Malachite green ATPase assay
Eukaryotic initiation factor 4A-I (Homo sapiens, UniProt P60842, R311E), sequence (P60842 2-406 R311E limits assumed): as the sequence (P60842 2-406 R110M limits assumed) above, with M109R, R310E counted along it

[20] = system: Eukaryotic initiation factor 4A-I (Homo sapiens), P60842 [R110K]; assay: Inhibition of human recombinant N-terminal His6-tagged eIF4A R110K mutant expressed in Escherichia coli BL21 CodonPlus cells using ATP and yeast RNA as substrate preincubated with enzyme for 20 mins followed by susbtrate addition and measured after 4 hrs by Malachite green ATPase assay; details: time 260.0 min
Eukaryotic initiation factor 4A-I (Homo sapiens), P60842 [R110K], sequence (P60842 whole entry R110K): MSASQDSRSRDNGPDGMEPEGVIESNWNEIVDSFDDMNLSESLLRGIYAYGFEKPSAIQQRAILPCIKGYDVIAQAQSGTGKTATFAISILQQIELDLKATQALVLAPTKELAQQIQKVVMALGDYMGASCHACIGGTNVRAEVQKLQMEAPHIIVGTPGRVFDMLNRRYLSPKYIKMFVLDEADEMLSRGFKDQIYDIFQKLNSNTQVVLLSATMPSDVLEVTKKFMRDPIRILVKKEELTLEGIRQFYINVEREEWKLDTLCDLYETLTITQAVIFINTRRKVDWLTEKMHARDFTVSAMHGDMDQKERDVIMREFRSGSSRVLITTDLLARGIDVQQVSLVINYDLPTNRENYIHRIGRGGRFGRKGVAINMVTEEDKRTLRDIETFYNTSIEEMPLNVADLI

[21] = target: T1, Eukaryotic initiation factor 4A-I; assay: Displacement of MANT-ATP from human recombinant N-terminal His6-tagged eIF4A expressed in Escherichia coli BL21 CodonPlus cells at 200 uM preincubated with enzyme and yeast RNA for 20 mins followed by MANT-ATP addition for 30 mins by fluorescence polarization assay; details: time 50.0 min
[22] = target: Eukaryotic initiation factor 4A-I (Homo sapiens, UniProt P60842, T158A); assay: Inhibition of human recombinant N-terminal His6-tagged eIF4A T158A mutant expressed in Escherichia coli BL21 CodonPlus cells using ATP and yeast RNA as substrate preincubated with enzyme for 20 mins followed by susbtrate addition and measured after 4 hrs by Malachite green ATPase assay
Eukaryotic initiation factor 4A-I (Homo sapiens, UniProt P60842, T158A), sequence (P60842 2-406 T158A limits assumed): as the sequence (P60842 2-406 R110M limits assumed) above, with M109R, T157A counted along it

Reticulocyte [23] = assay: Inhibition of IRES-dependent translation of renilla luciferase in rabbit reticulocyte lysates using bicistronic luciferase reporter [pSP/(CAG)33/FF/HCV/Ren.pA51] incubated for 90 mins by luciferase reporter gene based luminescence analysis; assay type: functional, subcellular; details: Oryctolagus cuniculus
[24] = target: T1, Eukaryotic initiation factor 4A-I; assay: Binding affinity to eIF4A in human A549 cells assessed as increase in thermal stability of the protein incubated for 90 mins by CETSA analysis; assay type: cell-based; details: dose 0.041-10 µM
[25] = target: Eukaryotic initiation factor 4A-I (Homo sapiens, UniProt P60842, T158V); assay: Inhibition of human recombinant N-terminal His6-tagged eIF4A T158V mutant expressed in Escherichia coli BL21 CodonPlus cells using ATP and yeast RNA as substrate preincubated with enzyme for 20 mins followed by susbtrate addition and measured after 4 hrs by Malachite green ATPase assay
Eukaryotic initiation factor 4A-I (Homo sapiens, UniProt P60842, T158V), sequence (P60842 2-406 T158V limits assumed): as the sequence (P60842 2-406 R110M limits assumed) above, with M109R, T157V counted along it

[26] = target: T1, Eukaryotic initiation factor 4A-I; assay: Displacement of FAM-[AG]8 from human recombinant N-terminal His6-tagged eIF4A expressed in Escherichia coli BL21 CodonPlus cells preincubated with enzyme for 20 mins followed by FAM-[AG]8 addition for 30 mins by fluorescence polarization assay; details: time 50.0 min
[27] = Homo sapiens, BJAB, 72 h, read-out: EC50

T1 sequence (P60842 whole entry): as the sequence (P60842 whole entry R110K) above, with K110R counted along it

## Nc1ccc(-c2ccc(-c3cc(C(=O)O)c4cc([N+](=O)[O-])ccc4n3)o2)cc1
[1]
  IC50: > 150 µM
BJAB; bjab
  EC50: Not Active

## COC(=O)[C@H]1[C@@H](O)[C@@]2(O)c3c(OC)cc(O[C@@H]4O[C@@H]([C@H](O)CO)CO[C@H]4OC)cc3O[C@@]2(c2ccc(OC)cc2)[C@@H]1c1ccccc1
[2]
  Activity: Active
Reticulocyte [3]
  inhibition: Active
Reticulocyte [4]
  inhibition: inactive

## CCCCc1ccc(-c2ccc(-c3cc(C(=O)O)c4cc(NC(C)=O)ccc4n3)o2)cc1
[1]
  IC50: 126 µM
BJAB; bjab
  EC50: Not Active

## CCCCc1ccc(-c2ccc(-c3cc(C(=O)O)c4cc(Br)ccc4n3)o2)cc1
[5]
  inhibition: Active
[6]
  IC50: 28.7 µM
[7]
  inhibition: Active
[8]
  inhibition: Active
BJAB; [27]
  EC50: 2.13 µM
[9]
  inhibition: Active

## C[C@@H]1C[C@@H]([C@H](O)CC2CC(=O)NC(=O)C2)C(=O)[C@@H](C)C1
Reticulocyte [10]
  inhibition: Active
Reticulocyte [11]
  inhibition: Active

## CCCCc1ccc(-c2ccc(-c3cc(C(=O)O)c4cc(N)ccc4n3)o2)cc1
[1]
  IC50: > 150 µM
BJAB; bjab
  EC50: Not Active

## CCCCc1ccc(-c2ccc(-c3cc(C(=O)OCC)c4cc([N+](=O)[O-])ccc4n3)o2)cc1
[1]
  IC50: > 150 µM
BJAB; [27]
  EC50: > 10 µM

## Nc1cccc(-c2ccc(-c3cc(C(=O)O)c4cc([N+](=O)[O-])ccc4n3)o2)c1
[1]
  IC50: > 150 µM
BJAB; bjab
  EC50: Not Active

## Nc1ncnc2c1ncn2[C@@H]1O[C@H](COP(=O)(O)OP(=O)(O)O)[C@@H](O)[C@H]1O
[12]
  inhibition: Active

## CCCCc1ccc(-c2ccc(-c3cc(C(=O)O)c4cc([N+](=O)[O-])ccc4n3)o2)cc1
[5]
  inhibition: Active
[13]
  IC50: > 50 µM
[14]
  IC50: > 50 µM
[6]
  IC50: 6.58 µM
[15]
  IC50: > 50 µM
Reticulocyte [16]
  inhibition: Active
[17]
  IC50: > 50 µM
[18]
  Activity: Active
[19]
  IC50: > 50 µM
[7]
  inhibition: Active
[8]
  inhibition: Active
[20]
  inhibition: Active
[21]
  inhibition: inactive
[22]
  IC50: > 50 µM
Reticulocyte [23]
  inhibition: inactive
[24]
  Activity: Dose-Dependent Effect
[25]
  IC50: > 50 µM
BJAB; [27]
  EC50: 0.463 µM
[9]
  inhibition: Active
[26]
  inhibition: Active

## O=C(O)c1cc(-c2ccc(-c3ccccc3)o2)nc2ccc([N+](=O)[O-])cc12
[1]
  IC50: > 150 µM

## CC(C)(C)OC(=O)Nc1cccc(-c2ccc(-c3cc(C(=O)O)c4cc([N+](=O)[O-])ccc4n3)o2)c1
[1]
  IC50: 110 µM

## O=C(O)c1cc(-c2ccc(-c3ccccc3Oc3ccccc3)o2)nc2ccc([N+](=O)[O-])cc12
[1]
  IC50: 21 µM

## CCCCc1ccc(-c2ccc(-c3cc(C(=O)O)c4cc([N+](=O)[O-])ccc4n3)cc2)cc1
[1]
  IC50: 54.8 µM

## CCCCc1ccc(-c2ccc(-c3cc(C(=O)O)c4cc(OC(F)(F)F)ccc4n3)o2)cc1
[1]
  IC50: > 150 µM

## CCCc1ccc(-c2ccc(-c3cc(C(=O)O)c4cc([N+](=O)[O-])ccc4n3)o2)cc1
[1]
  IC50: 40.9 µM

## CCCCc1ccc(-c2ccc(-c3cc(C(=O)O)c4cc(C)ccc4n3)o2)cc1
[1]
  IC50: 105 µM

From ChEMBL document CHEMBL5241107, “Discovery of an eIF4A Inhibitor with a Novel Mechanism of Action” (J Med Chem, 2021)
